Experimental data reported in ChEMBL document CHEMBL5233266, “β-Carboline as a Privileged Scaffold for Multitarget Strategies in Alzheimer's Disease Therapy” (J Med Chem, 2021).

Tests used:
[1] = target: Amyloid-beta precursor protein (Homo sapiens) (UniProt P05067); test: Inhibition of amyloid beta (unknown origin) aggregation at 20 uM relative to control
Cholinesterase [2] = target: T1, Cholinesterase (Homo sapiens, UniProt P06276); test: Inhibition of BuChE (unknown origin)
Acetylcholinesterase = Acetylcholinesterase (Homo sapiens, UniProt P22303); test: Inhibition of AChE (unknown origin)
Sequence of Acetylcholinesterase (P22303 whole entry): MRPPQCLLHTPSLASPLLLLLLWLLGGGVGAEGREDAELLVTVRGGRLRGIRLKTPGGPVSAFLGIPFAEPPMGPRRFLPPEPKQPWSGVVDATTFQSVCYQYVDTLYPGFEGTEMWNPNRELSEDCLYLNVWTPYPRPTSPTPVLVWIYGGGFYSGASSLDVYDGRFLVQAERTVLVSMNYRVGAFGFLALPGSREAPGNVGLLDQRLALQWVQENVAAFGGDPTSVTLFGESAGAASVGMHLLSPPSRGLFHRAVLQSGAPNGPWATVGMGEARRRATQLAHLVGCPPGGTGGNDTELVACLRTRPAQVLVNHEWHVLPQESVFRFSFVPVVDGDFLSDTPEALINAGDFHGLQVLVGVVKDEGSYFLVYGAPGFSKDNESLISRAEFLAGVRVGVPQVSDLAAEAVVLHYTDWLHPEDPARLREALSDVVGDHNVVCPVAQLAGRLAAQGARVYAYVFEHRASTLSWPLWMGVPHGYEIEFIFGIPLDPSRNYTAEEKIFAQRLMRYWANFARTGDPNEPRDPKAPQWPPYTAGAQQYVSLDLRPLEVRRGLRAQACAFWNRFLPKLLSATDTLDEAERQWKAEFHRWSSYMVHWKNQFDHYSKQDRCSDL

Beta-secretase 1 = Beta-secretase 1 (Homo sapiens, UniProt P56817); test: Inhibition of BACE1 (unknown origin) expressed in HEK293 cells by FRET assay; format: cell-based
Sequence of Beta-secretase 1 (P56817 whole entry): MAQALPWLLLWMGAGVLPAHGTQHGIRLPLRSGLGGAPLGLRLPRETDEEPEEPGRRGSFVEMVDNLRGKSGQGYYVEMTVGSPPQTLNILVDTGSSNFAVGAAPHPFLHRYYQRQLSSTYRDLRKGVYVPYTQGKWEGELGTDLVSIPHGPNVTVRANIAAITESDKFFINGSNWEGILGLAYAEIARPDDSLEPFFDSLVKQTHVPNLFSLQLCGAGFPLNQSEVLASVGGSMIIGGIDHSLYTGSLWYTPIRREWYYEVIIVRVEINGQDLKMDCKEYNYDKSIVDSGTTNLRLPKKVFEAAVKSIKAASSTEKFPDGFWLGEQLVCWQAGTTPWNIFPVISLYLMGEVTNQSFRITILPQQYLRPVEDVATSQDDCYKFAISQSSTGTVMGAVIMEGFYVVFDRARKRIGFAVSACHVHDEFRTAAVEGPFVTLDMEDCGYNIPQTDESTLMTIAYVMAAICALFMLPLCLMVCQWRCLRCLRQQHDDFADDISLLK

[3] = target: T2, Gamma-aminobutyric acid receptor subunit alpha-1 (Homo sapiens, UniProt P14867); test: Inhibition of GABAA alpha1 receptor (unknown origin)
T2 sequence (P14867 whole entry): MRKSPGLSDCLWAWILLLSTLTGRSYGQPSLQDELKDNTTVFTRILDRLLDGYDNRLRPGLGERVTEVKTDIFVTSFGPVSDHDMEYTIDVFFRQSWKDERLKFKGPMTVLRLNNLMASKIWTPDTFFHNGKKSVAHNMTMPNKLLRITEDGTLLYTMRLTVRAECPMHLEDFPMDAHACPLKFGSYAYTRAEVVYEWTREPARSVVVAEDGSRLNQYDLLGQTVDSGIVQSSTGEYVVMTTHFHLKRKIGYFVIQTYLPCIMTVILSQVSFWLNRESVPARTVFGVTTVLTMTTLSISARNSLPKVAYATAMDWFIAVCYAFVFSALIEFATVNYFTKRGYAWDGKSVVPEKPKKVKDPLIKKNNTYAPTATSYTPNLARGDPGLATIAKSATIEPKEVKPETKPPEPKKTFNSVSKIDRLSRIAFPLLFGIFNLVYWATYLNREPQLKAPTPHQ

[4] = target: T3, Gamma-aminobutyric acid receptor subunit alpha-5 (Homo sapiens, UniProt P31644); test: Inhibition of GABAA alpha5 receptor (unknown origin)
T3 sequence (P31644 whole entry): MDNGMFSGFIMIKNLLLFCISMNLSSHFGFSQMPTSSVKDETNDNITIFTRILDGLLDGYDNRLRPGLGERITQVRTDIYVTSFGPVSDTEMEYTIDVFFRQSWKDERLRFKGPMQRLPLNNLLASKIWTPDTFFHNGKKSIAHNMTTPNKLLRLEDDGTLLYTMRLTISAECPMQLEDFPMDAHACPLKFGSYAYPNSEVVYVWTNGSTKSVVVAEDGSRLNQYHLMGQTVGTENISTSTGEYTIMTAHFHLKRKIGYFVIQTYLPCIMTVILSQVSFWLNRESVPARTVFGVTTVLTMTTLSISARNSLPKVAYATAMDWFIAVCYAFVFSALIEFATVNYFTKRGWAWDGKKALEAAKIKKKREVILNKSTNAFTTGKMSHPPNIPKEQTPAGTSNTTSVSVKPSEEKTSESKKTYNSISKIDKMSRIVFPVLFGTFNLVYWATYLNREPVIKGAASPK

[5] = target: T2, Gamma-aminobutyric acid receptor subunit alpha-1; test: Binding affinity to human recombinant GABAA alpha1 receptor assessed as inhibition constant incubated for 1 hrs by liquid scintillation counting analysis
[6] = target: T4, Gamma-aminobutyric acid receptor subunit alpha-6 (Homo sapiens, UniProt Q16445); test: Binding affinity to human recombinant GABAA alpha6 receptor assessed as inhibition constant incubated for 1 hrs by liquid scintillation counting analysis
T4 sequence (Q16445 whole entry): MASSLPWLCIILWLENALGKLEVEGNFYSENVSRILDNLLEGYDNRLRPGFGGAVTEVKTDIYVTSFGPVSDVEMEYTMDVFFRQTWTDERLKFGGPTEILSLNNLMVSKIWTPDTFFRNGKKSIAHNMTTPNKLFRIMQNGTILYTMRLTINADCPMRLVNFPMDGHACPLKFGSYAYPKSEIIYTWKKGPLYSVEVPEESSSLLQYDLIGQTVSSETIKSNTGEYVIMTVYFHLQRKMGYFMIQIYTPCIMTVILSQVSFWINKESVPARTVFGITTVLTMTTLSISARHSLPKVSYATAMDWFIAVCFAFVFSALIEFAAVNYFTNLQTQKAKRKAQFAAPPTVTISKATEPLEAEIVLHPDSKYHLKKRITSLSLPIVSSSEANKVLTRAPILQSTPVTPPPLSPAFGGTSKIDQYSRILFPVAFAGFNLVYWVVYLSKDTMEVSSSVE

[7] = target: T4, Gamma-aminobutyric acid receptor subunit alpha-6; test: Binding affinity to GABAA alpha6 receptor (unknown origin) assessed as inhibition constant
[8] = target: T5, Gamma-aminobutyric acid receptor subunit alpha-2 (Homo sapiens, UniProt P47869); test: Inhibition of GABAA alpha2 receptor (unknown origin)
T5 sequence (P47869 whole entry): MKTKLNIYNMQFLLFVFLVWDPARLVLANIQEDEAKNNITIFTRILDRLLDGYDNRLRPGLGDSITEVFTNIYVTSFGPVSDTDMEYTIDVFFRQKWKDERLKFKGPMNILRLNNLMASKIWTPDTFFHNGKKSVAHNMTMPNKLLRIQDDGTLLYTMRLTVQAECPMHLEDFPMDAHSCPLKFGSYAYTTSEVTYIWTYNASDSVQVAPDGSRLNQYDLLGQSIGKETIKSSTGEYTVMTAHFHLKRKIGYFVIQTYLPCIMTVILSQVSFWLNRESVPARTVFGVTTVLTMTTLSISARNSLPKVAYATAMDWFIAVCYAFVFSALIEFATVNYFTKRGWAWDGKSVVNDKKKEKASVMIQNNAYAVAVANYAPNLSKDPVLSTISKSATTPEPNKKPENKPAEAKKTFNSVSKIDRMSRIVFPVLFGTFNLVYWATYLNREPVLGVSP

[9] = target: T6, Gamma-aminobutyric acid receptor subunit alpha-3 (Homo sapiens, UniProt P34903); test: Inhibition of GABAA alpha3 receptor (unknown origin)
T6 sequence (P34903 whole entry): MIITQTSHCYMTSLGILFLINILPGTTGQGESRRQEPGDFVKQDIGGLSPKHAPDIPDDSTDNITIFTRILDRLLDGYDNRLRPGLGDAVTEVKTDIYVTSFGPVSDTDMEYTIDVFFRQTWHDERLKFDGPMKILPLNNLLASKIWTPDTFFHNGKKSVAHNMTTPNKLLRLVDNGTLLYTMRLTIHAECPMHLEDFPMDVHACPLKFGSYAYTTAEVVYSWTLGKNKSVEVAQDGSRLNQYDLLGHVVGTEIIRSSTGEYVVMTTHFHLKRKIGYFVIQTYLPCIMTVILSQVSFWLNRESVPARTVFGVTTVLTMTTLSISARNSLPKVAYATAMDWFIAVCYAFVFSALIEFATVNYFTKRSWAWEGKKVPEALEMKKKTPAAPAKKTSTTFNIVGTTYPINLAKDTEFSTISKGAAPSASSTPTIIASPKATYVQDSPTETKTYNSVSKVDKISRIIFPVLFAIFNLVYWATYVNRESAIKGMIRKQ

[10] = target: T5, Gamma-aminobutyric acid receptor subunit alpha-2; test: Binding affinity to human recombinant GABAA alpha2 receptor assessed as inhibition constant incubated for 1 hrs by liquid scintillation counting analysis
[11] = target: T3, Gamma-aminobutyric acid receptor subunit alpha-5; test: Binding affinity to human recombinant GABAA alpha5 receptor assessed as inhibition constant incubated for 1 hrs by liquid scintillation counting analysis
[12] = target: T6, Gamma-aminobutyric acid receptor subunit alpha-3; test: Binding affinity to human recombinant GABAA alpha3 receptor assessed as inhibition constant incubated for 1 hrs by liquid scintillation counting analysis
[13] = target: 5-hydroxytryptamine receptor 2C (Rattus norvegicus, UniProt P08909); test: Displacement of [3H]-ketanserin from rat 5-HT2C expressed in mouse NIH/3T3 cells assessed as inhibition constant by Cheng-Prusoff equation analysis; format: cell-based
Sequence of 5-hydroxytryptamine receptor 2C (P08909 whole entry): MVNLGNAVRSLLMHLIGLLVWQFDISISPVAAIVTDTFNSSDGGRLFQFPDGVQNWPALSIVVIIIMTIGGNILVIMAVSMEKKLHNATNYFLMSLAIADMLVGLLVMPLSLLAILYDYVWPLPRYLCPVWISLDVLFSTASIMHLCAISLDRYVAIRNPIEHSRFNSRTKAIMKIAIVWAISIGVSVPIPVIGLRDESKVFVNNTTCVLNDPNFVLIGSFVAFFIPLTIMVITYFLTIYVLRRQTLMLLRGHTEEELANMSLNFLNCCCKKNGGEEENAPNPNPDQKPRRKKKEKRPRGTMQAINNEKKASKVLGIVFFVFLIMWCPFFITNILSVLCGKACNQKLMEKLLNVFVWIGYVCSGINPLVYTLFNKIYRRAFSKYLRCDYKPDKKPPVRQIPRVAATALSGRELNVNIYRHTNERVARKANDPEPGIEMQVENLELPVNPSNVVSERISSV

[14] = target: GABA-A receptor; anion channel; test: Displacement of [3H]flunitrazepam from GABAA (unknown origin ) receptor by radioligand binding assay; format: protein-complex assay, Homo sapiens
[15] = target: 5-hydroxytryptamine receptor 2A (Homo sapiens, UniProt P28223); test: Displacement of [3H]-LSD from human 5-HT2A expressed in human HEK cells assessed as inhibition constant by FLIPR assay; format: cell-based
Sequence of 5-hydroxytryptamine receptor 2A (P28223 whole entry): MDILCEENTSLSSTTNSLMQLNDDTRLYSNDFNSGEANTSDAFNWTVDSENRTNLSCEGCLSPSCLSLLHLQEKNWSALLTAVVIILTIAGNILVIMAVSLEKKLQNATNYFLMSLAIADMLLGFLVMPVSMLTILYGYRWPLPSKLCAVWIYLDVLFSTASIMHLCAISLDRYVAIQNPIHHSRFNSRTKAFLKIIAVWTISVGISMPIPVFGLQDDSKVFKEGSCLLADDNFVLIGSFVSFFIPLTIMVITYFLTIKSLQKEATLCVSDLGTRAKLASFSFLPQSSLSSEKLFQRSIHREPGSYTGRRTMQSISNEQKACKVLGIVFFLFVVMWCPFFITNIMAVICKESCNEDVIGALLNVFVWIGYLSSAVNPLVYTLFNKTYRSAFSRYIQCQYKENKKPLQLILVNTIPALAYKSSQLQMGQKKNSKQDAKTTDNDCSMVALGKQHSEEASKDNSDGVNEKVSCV

[16] = target: T7, 5-hydroxytryptamine receptor 3A (Homo sapiens, UniProt P46098); test: Binding affinity to 5-HT3R (unknown origin) assessed as inhibition constant
T7 sequence (P46098 whole entry): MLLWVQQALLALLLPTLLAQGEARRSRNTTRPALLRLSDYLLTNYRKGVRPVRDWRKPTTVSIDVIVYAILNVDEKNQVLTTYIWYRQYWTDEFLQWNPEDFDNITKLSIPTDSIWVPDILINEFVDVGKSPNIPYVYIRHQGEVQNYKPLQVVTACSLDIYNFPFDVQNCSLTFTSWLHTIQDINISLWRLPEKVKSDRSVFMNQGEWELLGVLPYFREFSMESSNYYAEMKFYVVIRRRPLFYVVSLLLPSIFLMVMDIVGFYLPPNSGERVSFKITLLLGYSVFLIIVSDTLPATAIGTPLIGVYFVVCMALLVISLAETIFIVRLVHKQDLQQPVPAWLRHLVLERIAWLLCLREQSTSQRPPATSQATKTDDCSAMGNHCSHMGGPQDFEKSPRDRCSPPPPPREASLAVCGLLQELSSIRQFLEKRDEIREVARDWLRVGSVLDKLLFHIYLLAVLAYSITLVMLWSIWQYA

[17] = target: 5-hydroxytryptamine receptor 1A (Homo sapiens, UniProt P08908); test: Displacement of […] from human 5-HT1A expressed in human HEK cells assessed as inhibition constant by FLIPR assay; format: cell-based
Sequence of 5-hydroxytryptamine receptor 1A (P08908 whole entry): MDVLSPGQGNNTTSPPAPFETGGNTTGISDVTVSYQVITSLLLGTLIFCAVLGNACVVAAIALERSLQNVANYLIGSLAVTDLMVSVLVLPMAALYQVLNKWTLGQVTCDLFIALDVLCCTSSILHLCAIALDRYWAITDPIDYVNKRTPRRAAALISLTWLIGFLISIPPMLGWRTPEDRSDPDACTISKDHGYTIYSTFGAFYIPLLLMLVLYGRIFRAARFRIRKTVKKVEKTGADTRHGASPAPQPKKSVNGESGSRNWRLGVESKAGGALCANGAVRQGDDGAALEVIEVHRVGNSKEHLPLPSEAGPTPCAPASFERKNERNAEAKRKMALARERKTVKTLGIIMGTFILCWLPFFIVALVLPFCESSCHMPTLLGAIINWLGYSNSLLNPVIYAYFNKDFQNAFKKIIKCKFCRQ

[18] = target: T8, Protein deacetylase HDAC6 (Homo sapiens, UniProt Q9UBN7); test: Inhibition of HDAC6 (unknown origin)
T8 sequence (Q9UBN7 whole entry): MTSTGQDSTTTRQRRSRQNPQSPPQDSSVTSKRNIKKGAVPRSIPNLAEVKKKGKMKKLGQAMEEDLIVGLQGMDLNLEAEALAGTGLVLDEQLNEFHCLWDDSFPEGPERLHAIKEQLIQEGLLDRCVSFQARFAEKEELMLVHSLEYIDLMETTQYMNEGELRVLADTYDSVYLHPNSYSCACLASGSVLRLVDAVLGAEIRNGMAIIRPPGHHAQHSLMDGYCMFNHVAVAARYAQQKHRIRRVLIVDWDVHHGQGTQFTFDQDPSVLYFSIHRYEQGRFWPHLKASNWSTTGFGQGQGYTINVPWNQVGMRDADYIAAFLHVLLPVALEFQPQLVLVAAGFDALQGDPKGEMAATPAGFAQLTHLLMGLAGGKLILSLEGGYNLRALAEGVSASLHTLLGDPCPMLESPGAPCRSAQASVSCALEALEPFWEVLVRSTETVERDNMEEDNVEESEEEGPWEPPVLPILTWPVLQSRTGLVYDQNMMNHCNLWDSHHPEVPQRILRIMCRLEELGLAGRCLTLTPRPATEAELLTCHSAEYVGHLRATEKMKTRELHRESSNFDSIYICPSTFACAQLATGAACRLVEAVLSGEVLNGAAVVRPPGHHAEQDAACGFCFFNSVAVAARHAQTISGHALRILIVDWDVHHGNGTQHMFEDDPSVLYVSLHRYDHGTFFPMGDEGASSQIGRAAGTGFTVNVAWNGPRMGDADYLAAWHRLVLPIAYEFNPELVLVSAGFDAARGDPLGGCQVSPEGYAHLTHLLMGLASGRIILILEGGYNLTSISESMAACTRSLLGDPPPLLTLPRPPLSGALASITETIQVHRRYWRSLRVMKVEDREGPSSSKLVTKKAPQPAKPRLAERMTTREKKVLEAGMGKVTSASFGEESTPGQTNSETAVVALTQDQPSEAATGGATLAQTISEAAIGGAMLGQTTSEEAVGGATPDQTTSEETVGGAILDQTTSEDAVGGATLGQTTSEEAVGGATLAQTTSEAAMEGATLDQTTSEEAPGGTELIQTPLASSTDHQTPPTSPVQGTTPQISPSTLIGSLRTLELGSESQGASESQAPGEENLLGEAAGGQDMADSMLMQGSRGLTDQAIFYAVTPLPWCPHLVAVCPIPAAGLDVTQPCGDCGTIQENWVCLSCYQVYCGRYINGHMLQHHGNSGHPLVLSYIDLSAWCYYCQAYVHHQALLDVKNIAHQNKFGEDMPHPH

Histone deacetylase 2 = Histone deacetylase 2 (Homo sapiens, UniProt Q92769); test: Inhibition of HDAC2 (unknown origin)
Sequence of Histone deacetylase 2 (Q92769 whole entry): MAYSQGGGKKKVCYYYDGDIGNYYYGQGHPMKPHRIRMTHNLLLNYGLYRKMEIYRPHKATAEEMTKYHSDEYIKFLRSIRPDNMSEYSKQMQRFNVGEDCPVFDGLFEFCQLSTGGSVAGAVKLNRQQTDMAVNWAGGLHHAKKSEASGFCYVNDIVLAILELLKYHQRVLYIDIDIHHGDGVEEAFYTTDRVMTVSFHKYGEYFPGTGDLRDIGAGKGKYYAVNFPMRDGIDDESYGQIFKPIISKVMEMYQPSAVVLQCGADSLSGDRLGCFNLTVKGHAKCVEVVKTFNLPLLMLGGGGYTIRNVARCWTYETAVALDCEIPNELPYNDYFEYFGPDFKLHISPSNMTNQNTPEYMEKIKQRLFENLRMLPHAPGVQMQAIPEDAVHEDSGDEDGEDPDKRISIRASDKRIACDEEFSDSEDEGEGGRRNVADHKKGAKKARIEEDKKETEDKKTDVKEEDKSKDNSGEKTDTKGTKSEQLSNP

Histone deacetylase 1 = Histone deacetylase 1 (Homo sapiens, UniProt Q13547); test: Inhibition of HDAC1 (unknown origin)
[19] = target: cGMP-specific 3',5'-cyclic phosphodiesterase (Homo sapiens, UniProt O76074); test: Inhibition of PDE5 (unknown origin)
Cholinesterase [20] = target: T1, Cholinesterase; test: Inhibition of BuChE (unknown origin) assessed as inhibition of A-beta aggregation at 100 uM relative to control

T1 sequence (P06276 whole entry): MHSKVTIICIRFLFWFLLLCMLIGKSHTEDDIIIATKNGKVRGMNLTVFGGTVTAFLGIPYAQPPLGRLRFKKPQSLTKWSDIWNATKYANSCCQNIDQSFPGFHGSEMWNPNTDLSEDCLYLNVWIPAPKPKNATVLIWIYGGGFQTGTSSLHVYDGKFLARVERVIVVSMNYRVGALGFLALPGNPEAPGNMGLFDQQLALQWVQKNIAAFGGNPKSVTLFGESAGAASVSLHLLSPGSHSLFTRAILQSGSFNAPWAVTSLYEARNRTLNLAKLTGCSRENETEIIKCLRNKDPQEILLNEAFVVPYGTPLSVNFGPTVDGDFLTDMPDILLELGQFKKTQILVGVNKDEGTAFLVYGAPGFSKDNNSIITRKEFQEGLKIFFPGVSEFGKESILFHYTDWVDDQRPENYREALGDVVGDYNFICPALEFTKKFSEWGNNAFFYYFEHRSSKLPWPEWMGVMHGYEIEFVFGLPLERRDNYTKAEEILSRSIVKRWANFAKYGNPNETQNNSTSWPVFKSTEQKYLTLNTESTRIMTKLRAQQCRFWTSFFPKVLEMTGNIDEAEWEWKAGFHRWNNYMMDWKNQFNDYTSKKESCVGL
Sequence of Amyloid-beta precursor protein (Homo sapiens) (P05067 whole entry): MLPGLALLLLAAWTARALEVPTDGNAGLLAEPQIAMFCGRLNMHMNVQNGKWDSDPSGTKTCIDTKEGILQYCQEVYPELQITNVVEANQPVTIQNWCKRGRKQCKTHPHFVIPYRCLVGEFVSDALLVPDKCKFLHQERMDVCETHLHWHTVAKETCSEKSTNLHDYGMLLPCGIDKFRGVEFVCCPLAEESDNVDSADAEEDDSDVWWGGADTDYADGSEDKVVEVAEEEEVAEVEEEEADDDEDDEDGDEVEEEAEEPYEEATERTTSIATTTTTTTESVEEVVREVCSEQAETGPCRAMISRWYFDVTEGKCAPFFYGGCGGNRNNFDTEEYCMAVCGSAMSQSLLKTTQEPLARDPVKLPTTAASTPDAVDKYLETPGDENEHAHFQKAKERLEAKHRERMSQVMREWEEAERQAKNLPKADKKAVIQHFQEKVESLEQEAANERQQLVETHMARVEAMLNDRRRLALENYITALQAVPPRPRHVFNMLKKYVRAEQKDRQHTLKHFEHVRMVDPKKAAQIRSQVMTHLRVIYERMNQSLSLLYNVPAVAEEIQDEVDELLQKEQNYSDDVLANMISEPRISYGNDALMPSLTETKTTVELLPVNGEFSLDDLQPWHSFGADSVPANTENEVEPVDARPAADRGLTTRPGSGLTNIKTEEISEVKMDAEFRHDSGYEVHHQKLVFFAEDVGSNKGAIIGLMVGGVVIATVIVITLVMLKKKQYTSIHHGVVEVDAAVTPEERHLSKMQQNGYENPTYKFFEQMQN

`CC1c2[nH]c3ccccc3c2CCN1C(=O)/C=C/c1ccc(O)c(O)c1` (centres undefined) was tested, and the inhibition [1] was 72%, the IC50 (Cholinesterase [2]) was 1300 nM and the IC50 (Acetylcholinesterase) was 21000 nM.
`OC[C@@H]1Cc2c([nH]c3ccccc23)CN1Cc1cn(C[C@@H]2Cc3c([nH]c4ccccc34)CN2)nn1` gave an IC50 (Beta-secretase 1) of 17000 nM.
For `c1ccc2c(c1)[nH]c1cnc3c4cccnc4[nH]c3c12`, the IC50 [3] was 2 nM, the IC50 [4] was 200 nM and the Ki [5] was 2 nM. The Ki [6] was over 10000 nM, the Ki [7] was over 10000 nM and the IC50 [8] was 12 nM. It also gave an IC50 [9] of 16 nM, a Ki [10] of 12 nM and a Ki [11] of 200 nM. The Ki [12] was 16 nM.
`COc1ccc2c3c([nH]c2c1)C(C)NCC3` (centres undefined) showed a Ki [13] of over 10000 nM and an IC50 [14] of over 100000 nM.
Molecule `CC1=NCCc2c1[nH]c1ccccc21` has a Ki [15] of 990 nM, a Ki [16] of over 10000 nM and a Ki [17] of 1700 nM.
For `O=C(/C=C/c1ccc(N2CC(=O)N3C(Cc4c([nH]c5ccccc45)C3c3ccc4c(c3)OCO4)C2=O)cc1)NO` (centres undefined), the IC50 [18] was over 2500 nM, the IC50 (Histone deacetylase 2) was over 2500 nM and the IC50 (Histone deacetylase 1) was over 2500 nM. The IC50 [19] was 120 nM.
Work on `Cc1ccc2[nH]c3c4[n+](ccc3c2c1)-c1ccccc1C4=O` yielded an inhibition (Cholinesterase [20]) of 38%.
